Test results: US7897369B2, “Isoprenoid wax ester synthases, isoprenoid acyl CoA-synthetases, and uses thereof” (Regents of the University of Minnesota, priority 2007, dated 2011)
Entries after “also recorded” stand apart in the source; their conditions may differ.

How the values were obtained:
WS2 [1] = target: T1, WS2 (Marinobacter nauticus, UniProt A3RE51); assay: WS2 kinetics on ethanol and oleoyl-CoA (DTNB); format: biochemical, Marinobacter hydrocarbonoclasticus
Procedure: (§1) […] Assay reactions were pre-incubated at 37° C. for 5 minutes before the reactions were started by the addition of enzyme.

Acinetobacter WS/DGAT = target: T2, Acinetobacter WS/DGAT (Acinetobacter baylyi, UniProt Q8GGG1); assay: Kinetic WS assay, spectrophotometric (CoA release, DTNB); format: biochemical
T2 construct: His6 (N); made in house
T2 sequence (Q8GGG1 1-458): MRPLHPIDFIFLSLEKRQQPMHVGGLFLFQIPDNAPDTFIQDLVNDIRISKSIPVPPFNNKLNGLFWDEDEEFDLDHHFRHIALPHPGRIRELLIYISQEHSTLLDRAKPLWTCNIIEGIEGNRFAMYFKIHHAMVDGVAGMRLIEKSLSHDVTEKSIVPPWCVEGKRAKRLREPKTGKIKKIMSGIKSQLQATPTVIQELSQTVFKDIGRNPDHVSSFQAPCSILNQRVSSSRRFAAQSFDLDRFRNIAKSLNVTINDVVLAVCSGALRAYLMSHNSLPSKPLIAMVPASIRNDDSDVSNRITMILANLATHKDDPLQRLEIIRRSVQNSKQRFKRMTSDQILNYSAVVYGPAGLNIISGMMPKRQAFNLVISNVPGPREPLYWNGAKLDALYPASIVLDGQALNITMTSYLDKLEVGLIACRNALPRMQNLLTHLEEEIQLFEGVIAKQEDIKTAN
Procedure: (§2) WS activity was determined by monitoring CoA release using Ellman's reagent [5,5′-dithio-bis(2-nitrobenzoic acid); DTNB] at 412 nm (ε=13,600 M^−1 cm^−1) (Ellman, 1959. Arch. Biochem. Biophys. 82:70-77). Kinetic in vitro assays were performed in triplicate in 125 mM sodium phosphate buffer (pH 7.4) containing 0.1% Tergitol NP-11 detergent, 10 mM MgCl2, 1 mM DNTB, 250 μM palmitoyl-CoA, 1 to 250 μM hexadecanol, and 0.5 μg of WS enzyme. Assay reactions were preincubated at 37° C. for 5 min before the reactions were started by the addition of enzyme. Heat-denatured enzyme (99° C. for 15 min) was used as a negative control.
(§3) Acyl-CoA and fatty/isoprenoid alcohol specificity of WS2 was determined in the same manner as described for the kinetic WS assay with assumed saturating conditions containing both the fatty/isoprenoid alcohol and acyl-CoA substrates at a concentration of 1 mM. Acyl-CoA specificity was measured with hexadecanol as acyl acceptor, whereas palmitoyl-CoA was used as acyl donor to determine alcohol specificity. Isoprenoid WS activity of WS2 was determined with 250 μM HPLC purified phytanoyl-CoA and 250 μM phytol as substrates.
(§4) A spectrophotometric assay was developed to determine the kinetic properties of WS1 and WS2. The concentration of sulfhydryl groups of CoA released during the condensation reaction between fatty/isoprenoid CoA activated acids and alcohols was determined by using Ellman's reagent (DTNB) (Ellman, 1959. Arch. Biochem. Biophys. 82:70-77). The specific activities of WS1, WS2, and Acinetobacter WS/DGAT were measured with palmitoyl-CoA and hexadecanol, palmitoyl-CoA and phytol, and phytanoyl-CoA and phytol. Phytanoyl-CoA for these assays was enzymatically synthesized from phytanic acid and CoA using the above-characterized isoprenoid/acyl-CoA synthetase Acs2.

WS1 [2] = assay: as above; format: biochemical, Marinobacter hydrocarbonoclasticus DSM 8798
Procedure: as §2, §3, §4

WS2 [3] = target: T1, WS2; assay: as above; format: biochemical, Marinobacter hydrocarbonoclasticus DSM 8798
Procedure: Assay reactions were preincubated at 37° C. for 5 min before the reactions were started by the addition of enzyme. Heat-denatured enzyme (99° C. for 15 min) was used as a negative control.
as §3, with “specificity.” for “specificity. Isoprenoid WS activity of WS2 was determined with 250 μM HPLC purified phytanoyl-CoA and 250 μM phytol as substrates.”
A spectrophotometric assay was developed to determine the kinetic properties of WS1 and WS2. […] The specific activities of WS1, WS2, and Acinetobacter WS/DGAT were measured with palmitoyl-CoA and hexadecanol, palmitoyl-CoA and phytol, and phytanoyl-CoA and phytol. Phytanoyl-CoA for these assays was enzymatically synthesized from phytanic acid and CoA using the above-characterized isoprenoid/acyl-CoA synthetase Acs2.

WS1 [4] = assay: Coupled enzyme assay, WS substrate profile (TLC); format: biochemical, Marinobacter hydrocarbonoclasticus DSM 8798; settings: coupled reaction; palmitic acid with hexadecanol, phytanic acid with phytol, phytanoyl-CoA with the alcohols named in the value
Procedure: (§5) Stock solutions of various substrates were prepared in 50 mM Tris-HCl buffer (pH 8) containing 1% gum arabic, 12.5 μg bovine serum albumin ml^−1, 0.1% taurocholate, and either 100 mM fatty acid, isoprenoid acid, fatty alcohol, or isoprenoid alcohol. Stock solutions were sonicated to disperse the substrates. Substrate profiles of the three WS were tested using coupled enzyme in vitro reactions in which the CoA synthetases Acs1 and Acs2 are added to synthesize the CoA-activated fatty acid phytanic acid substrates from corresponding acid precursors for the WS reactions. Assays were carried out in 500-μl reactions containing in 50 mM Tris-HCl buffer (pH 8.0), 12.5 μl of each acid, and alcohol substrate stock solution (final concentrations of each substrate of 250 μM), 10 mM MgCl2, 10 mM CoASH, 10 mM ATP, 5 mM TCEP, 0.1 U of inorganic pyrophosphatase, 0.25 μg of Acs1 and Acs2 CoA synthetase, and 0.5 μg of WS to be tested. Assays were incubated at 37° C. overnight before thin-layer chromatography (TLC) analysis of the reaction products.
(§6) In vitro WS assay samples were extracted with 500 μl of chloroformmethanol (1:1 [vol/vol]), and extracts were analyzed by TLC with Whatman normal phase silica gel 60 plates and developed using hexane-diethyl ether-acetic acid (90:10:1 [vol/vol/vol]). TLC plates were stained with either iodine vapor or anisaldehyde solution as described earlier (Jork et al., 1990. Thin-layer chromatography reagents and detection methods, vol. 1a. Physical and chemical detection methods: fundamentals, reagents. VHC, Weinheim, Germany). Palmitoyl palmitate and triolein were used as WE and TAG reference compounds, respectively.

WS2 [5] = target: T1, WS2; assay: Coupled enzyme assay, WS substrate profile (TLC); format: biochemical, Marinobacter hydrocarbonoclasticus DSM 8798; settings: coupled reaction; palmitic acid with hexadecanol, phytanic acid with phytol, phytanoyl-CoA with the alcohols named in the value
Procedure: as §5, §6

[6] = substrate: CCCCCCCCCCCCCCCCO; assay: Kinetic WS assay, spectrophotometric (CoA release, DTNB); format: biochemical, Marinobacter hydrocarbonoclasticus DSM 8798; settings: other: saturating palmitoyl-CoA (250 μM), various concentrations of hexadecanol; pH 7.4
[7] = substrate: CCCCCCCC/C=C\CCCCCCCC(=O)SCCNC(=O)CCNC(=O)[C@H](O)C(C)(C)COP(=O)(O)OP(=O)(O)OC[C@H]1O[C@@H](n2cnc3c(N)ncnc32)[C@H](O)[C@@H]1OP(=O)(O)O; assay: WS2 kinetics on ethanol and oleoyl-CoA (DTNB); format: biochemical, Marinobacter hydrocarbonoclasticus; settings: other: steady state; varied substrate 10 μM-250 μM, other substrate (oleoyl-CoA or ethanol) 500 μM; pH 7.2; 37.0 °C
Procedure: as §1

[8] = steady state, varied substrate 10 μM-250 μM, other substrate (oleoyl-CoA or ethanol) 500 μM
[9] = co-substrate hexadecanol (C16), listed as palmitoyl-CoA

**Q.** What does the source list for `CCO` [Ethanol]?
**A.** Kcat of WS2 (WS2 [1]; steady state on ethanol and oleoyl-CoA): 32 s⁻¹; Km (WS2 [1]; [8]): 17 µM; Vmax of WS2 (WS2 [1]; [8]): 1250 μmol (mg/min)^−1

**Q.** For `CCCCCCCCCCCCCCCC(=O)SCCNC(=O)CCNC(=O)[C@H](O)C(C)(C)COP(=O)(O)OP(=O)(O)OC[C@H]1O[C@@H](n2cnc3c(N)ncnc32)[C@H](O)[C@@H]1OP(=O)(O)O` [Palmitoyl-CoA, palmitoyl-CoA (C16:0)], which “Mean sp act ± SD of Acinetobacter WS/DGAT” value (Acinetobacter WS/DGAT; co-substrate hexadecanol (C16)) is on record?
**A.** 0.389 ± 0.039 mmol/min/mg

**Q.** What about the “Mean sp act ± SD of Acinetobacter WS/DGAT” value (Acinetobacter WS/DGAT; [9]) of the same molecule?
**A.** 0.38 mmol/min/mg

**Q.** And the “Mean sp act ± SD of Acinetobacter WS/DGAT” value (Acinetobacter WS/DGAT; co-substrate phytol)?
**A.** 0.138 ± 0.003 mmol/min/mg

**Q.** What about the “Mean sp act ± SD of Marinobacter WS1” value (WS1 [2]; co-substrate hexadecanol (C16)) of the same molecule?
**A.** 1.338 ± 0.5 mmol/min/mg

**Q.** What about the “Mean sp act ± SD of Marinobacter WS1” value (WS1 [2]; [9]) of the same molecule?
**A.** 1.3 mmol/min/mg

**Q.** What about the “Mean sp act ± SD of Marinobacter WS1” value (WS1 [2]; co-substrate phytol) of the same molecule?
**A.** 0.152 ± 0.011 mmol/min/mg

**Q.** What about the “Mean sp act ± SD of Marinobacter WS2” value (WS2 [3]; co-substrate hexadecanol (C16)) of the same molecule?
**A.** 61.323 ± 1.79 mmol/min/mg

**Q.** And the “Mean sp act ± SD of Marinobacter WS2” value (WS2 [3]; [9])?
**A.** 61 mmol/min/mg

**Q.** And the “Mean sp act ± SD of Marinobacter WS2” value (WS2 [3]; co-substrate phytol)?
**A.** 28.872 ± 2.13 mmol/min/mg

**Q.** And the “Acyl-CoA specificity of WS2” value (WS2 [3]; hexadecanol as acyl acceptor, both substrates 1 mM)?
**A.** clear preference

**Q.** What about the “WS2 more active than WS1 or Acinetobacter WS/DGAT in creating the hybrid WE” value (WS2 [3]; palmitoyl-CoA and phytol as substrates) of the same molecule?
**A.** 20 fold

**Q.** What does the source list for `CC(C)CCCC(C)CCCC(C)CCCC(C)CC(=O)SCCNC(=O)CCNC(=O)[C@H](O)C(C)(C)COP(=O)(O)OP(=O)(O)OC[C@H]1O[C@@H](n2cnc3c(N)ncnc32)[C@H](O)[C@@H]1OP(=O)(O)O` (stereo partly drawn) [Phytanoyl-CoA]?
**A.** WE product formation by WS1 (TLC), in words (WS1 [4]): fatty alcohols were not condensed to phytanoyl-CoA; also recorded: produced isoprenoid WEs from phytanoyl-CoA and the isoprenoid alcohols phytol and farnesol; WE product formation by WS2 (TLC), in words (WS2 [5]): fatty alcohols were not condensed to phytanoyl-CoA; also recorded: produced isoprenoid WEs from phytanoyl-CoA and the isoprenoid alcohols phytol and farnesol; Mean sp act ± SD of Marinobacter WS2 (WS2 [3]; co-substrate phytol): 0.397 ± 0.099 mmol/min/mg; Mean sp act ± SD of Marinobacter WS2 (WS2 [3]; co-substrate phytol, listed as phytanoyl-CoA): 0.397 mmol/min/mg

B1: WS2 (Marinobacter nauticus) (protein)
chain: MKRLGTLDASWLAVESEDTPMHVGTLQIFSLPEGAPETFLRDMVTRMKEAGDVAPPWGYKLAWSGFLGRVIAPAWKVDKDIDLDYHVRHSALPRPGGERELGILVSRLHSNPLDFSRPLWECHVIEGLENNRFALYTKMHHSMIDGISGVRLMQRVLTTDPERCNMPPPWTVRPHQRRGAKTDKEASVPAAVSQAMDALKLQADMAPRLWQAGNRLVHSVRHPEDGLTAPFTGPVSVLNHRVTAQRRFATQHYQLDRLKNLAHASGGSLNDIVLYLCGTALRRFLAEQNNLPDTPLTAGIPVNIRPADDEGTGTQISFMIASLATDEADPLNRLQQIKTSTRRAKEHLQKLPKSALTQYTMLLMSPYILQLMSGLGGRMRPVFNVTISNVPGPEGTLYYEGARLEAMYPVSLIAHGGALNITCLSYAGSLNFGFTGCRDTLPSMQKLAVYTGEALDELESLILPPKKRARTRK
**Q.** Which results are given for B1?
**A.** Km [6]: 44 µM; Vmax [6]: 10 mmol/mg/min; kcat [6]: 4,794 s^−1; Km [7]: 23 µM; kcat/Km [7]: 2.56 × 10^6 (M^−1 s^−1) M^−1 s^−1; WS2 more active in vitro in producing acyl ester products than Acinetobacter WS/DGAT (WS2 [3]; in vitro): approximately 150 times
